Measured values taken from US6358883B1, “Pesticidal and parasiticidal use of 1-aryl-1-(substituted thio, sulfinyl and sulfonyl)-2-nitroethane compounds” (American Cyanamid Company, priority 1998, dated 2002).
Where two headings read alike, the source gives them in different places.

Tests used:
[1] = test system: Root-knot nematode, Meloidogyne incognita J2 larvae; conditions: potted tomato, scored 4 weeks following inoculation
From the text: Soil Nematicide Assay Targeting Root-knot Nematode, Meloidogyne Incognita on Potted Tomato
The test compound is solubilized in acetone and diluted with water to the required test concentration. Silty loam soil in a 3 inch pot with a 3-week-old tomato transplant is drenched with the test solution. Four thousand root-knot nematode Meloidogyne incognita J2 larvae are dispensed in a aqueous suspension onto the soil. The pots are kept in the greenhouse and 4 weeks following inoculation of the pots, plant roots are washed free of soil and scored for the degree of root galling using the root-knot galling index identified below.

[2] = test system: M. incognita (Root Knot Nematode) larvae; test: Evaluation of test compounds against M. incognita larvae in microtiter plate wells (movement score); type: in vivo; conditions: larvae scored for movement after 20-24 hours; note: key: A score of '9' indicates inactive worms with a straight, sticklike morphology; A score of '8' indicates inactive worms with a limp, curled or curved morphology; A score of '7' indicates dead/paralyzed worms after 72 hours
Summary of the method: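 Scoring is by larval movement: dead or paralyzed worms count as positive, and a "7" means dead/paralyzed at 72 hours. Freshly hatched root-knot larvae (50-65 per well) in buffered S Medium were incubated with compounds under plate sealers for 20-24 h before the first read.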

[3] = test system: C. elegans (Bristol strain); test: Evaluation of test compounds against C. elegans (motility, 96-well plate); type: in vivo; design: key: 9=complete kill in 4 hours; 8=complete kill in 24 hours; 7=markedly reduced motility in approximately 95% of worms in 24 hours; 0=normal motility, same as controls; conditions: motility at 4 and 24 hours
Summary of the method: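 Activity is a semi-quantitative visual score of adult and larval movement, read at 4 h and 24 h post-immersion at 20 °C after gentle tapping. Worms were suspended in Na buffer in wells where compound, dissolved in 80% acetone, had been evaporated.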

[4] = test system: Spodoptera eridania, eggs-southern armyworm (SAW-Eggs); test: Southern armyworm eggs (SAW-Eggs) treated diet test; type: in vivo; design: key: 0 = no effect; 1 = 10-25% kill; 2 = 26-35% kill; 3 = 36-45% kill; 4 = 46-55% kill; 5 = 56-65% kill; 6 = 66-75% kill; 7 = 76-85% kill; 8 = 86-99% kill; 9 = 100% kill; conditions: mortality after 7 days
Summary of the method: (§1)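 Eggs of S. eridania or D. undecimpunctata howardi were set on artificial diet pretreated with test solution (10,000 ppm stock in 35% aqueous acetone, water dilutions) and dried. Wells were sealed with vented clear covers, and mortality was scored at day 7.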

[5] = test system: Diabrotica undecimpunctata howardi, eggs-southern corn rootworm (SCR-Eggs); test: Southern corn rootworm eggs (SCR-Eggs) treated diet test; type: in vivo; design: key: 0 = no effect; 1 = 10-25% kill; 2 = 26-35% kill; 3 = 36-45% kill; 4 = 46-55% kill; 5 = 56-65% kill; 6 = 66-75% kill; 7 = 76-85% kill; 8 = 86-99% kill; 9 = 100% kill; conditions: mortality after 7 days
Summary of the method: as §1

[6] = test system: Spodoptera eridania, 2nd instar larvae, southern armyworm (SAW); test: Southern armyworm (SAW) leaf dip test; type: in vivo; design: key: 0 = no effect; 1 = 10-25% kill; 2 = 26-35% kill; 3 = 36-45% kill; 4 = 46-55% kill; 5 = 56-65% kill; 6 = 66-75% kill; 7 = 76-85% kill; 8 = 86-99% kill; 9 = 100% kill
Summary of the method: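 Ten 2nd instar caterpillars feed on a Sieva lima bean leaf that was dipped 3 seconds in test solution (stock 10,000 ppm in 35% acetone/water, water-diluted). Five days later, larvae are assessed for death, feeding reduction or abnormal molting.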

[7] = test system: Diabrotica virgifera virgifera Leconte, 2nd instar western corn rootworm (WCR); test: Western corn rootworm (WCR) soil test; type: in vivo; design: key: 0 = no effect; 1 = 10-25% kill; 2 = 26-35% kill; 3 = 36-45% kill; 4 = 46-55% kill; 5 = 56-65% kill; 6 = 66-75% kill; 7 = 76-85% kill; 8 = 86-99% kill; 9 = 100% kill
Summary of the method: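 Ten 2nd-instar rootworm larvae are placed in jars of moist soil with millet seed and talc treated with 1.25 mg active ingredient (roughly 50 kg/ha) from a 35% acetone-in-water solution. After 5 days mortality is scored, counting missing larvae as dead.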

[8] = test system: Tetranychus urticae (OP-resistant strain), 2-spotted spider mite (TSM); test: 2-spotted spider mite (TSM) plant dip test; type: in vivo; design: key: 0 = no effect; 1 = 10-25% kill; 2 = 26-35% kill; 3 = 36-45% kill; 4 = 46-55% kill; 5 = 56-65% kill; 6 = 66-75% kill; 7 = 76-85% kill; 8 = 86-99% kill; 9 = 100% kill; conditions: mortality after 2 days
Summary of the method: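 Mortality counted 2 days after a 3 s agitated dip of infested Sieva lima bean plants. Compound came from a 10,000 ppm stock in 35% aqueous acetone, with further dilution in water. Each primary leaf carried about 100 OP-resistant mites, allowed to settle ~2 h before dipping.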

[9] = test system: Aphis gossypii, cotton aphid (CA); test: Cotton aphid (CA) cotyledon dip test; type: in vivo; design: key: 0 = no effect; 1 = 10-25% kill; 2 = 26-35% kill; 3 = 36-45% kill; 4 = 46-55% kill; 5 = 56-65% kill; 6 = 66-75% kill; 7 = 76-85% kill; 8 = 86-99% kill; 9 = 100% kill; conditions: mortality after 5 days
Summary of the method: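 Mortality was scored 5 days after dipping aphid-infested cotyledons, colonised overnight from a transfer leaf, into water dilutions of a 35% acetone/water compound solution.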

Row | SMILES | Galling Index ([1]; Rate 10 ppm soil drench) | Galling Index ([1]; Rate 25 ppm soil drench) | Galling Index ([1]; Rate 50 ppm soil drench) | M. incognita (150 ppm) score [2] | Rating Against C. elegans (150 ppm) [3] | SAW Eggs (300 ppm) rating [4] | SCR Eggs (1000 ppm) rating [5] | SAW (300 ppm) rating [6] | WCR (50 ppm) rating [7] | TSM (300 ppm) rating [8] | CA (300 ppm) rating [9]
1 | O=C(O)CSC(C[N+](=O)[O-])c1ccccc1 (stereo not drawn) [Example 1, {[alpha-(nitromethyl)benzyl]thio}-acetic acid] | 1 (10) | 0 (0) | 0 (0) | 9 | 9 | 0 | 0 |  |  |  | 
2 | O=C(CSC(C[N+](=O)[O-])c1cccnc1)OCc1ccccc1 (centres unmarked) [Example 174] |  |  |  | 9 | 0 | 0 | 0 | 0 | 0 | 0 | 0
3 | CCCSC(C[N+](=O)[O-])c1cccnc1 (centres unmarked) [Example 175] |  |  |  | 9 | 0 | 0 | 0 | 0 | 0 | 0 | 0
4 | C=CCSC(C[N+](=O)[O-])c1cccnc1 (centres unmarked) [Example 176] |  |  |  | 9 | 0 | 0 | 0 | 0 | 0 | 0 | 0
5 | O=[N+]([O-])CC(SCc1ccccc1)c1cccnc1 (centres unmarked) [Example 177] |  |  |  | 9 | 0 | 0 | 0 | 0 | 0 | 0 | 0
6 | CCCOC(=O)CSC(C[N+](=O)[O-])c1cccnc1 (centres unmarked) [Example 178] |  |  |  | 9 | 0 | 0 | 0 | 0 | 0 | 0 | 0
